The record followed here is patent US20230339970A1, “CASEIN KINASE 1 DELTA MODULATORS” (priority 2020, published 2023).

Test [1] addresses T1, human CSNK1D (Homo sapiens, UniProt P48730).
T1 construct: expressed in transfected cells
The test is described as follows: Whole Cell nBRET CSNK1D Binding Assay. As to conditions: living CHO cells stably expressing human CSNK1D tagged with nanoluciferase; NanoBret tracer 130 nM; 2 hours at 37 C.

The target in test [2] is T2, human recombinant GST cleaved CSNK1D (Homo sapiens, UniProt P48730).
T2 construct: GST (cleaved yes); purchased University of Dundee clone DU 19064
Description: Purified Enzyme Assay (ADP-Glo CSNK1D Kinase Assay). It counts as biochemical. As to conditions: 2 nM CSNK1D; peptide substrate 150 μM; ATP 20 μM; 45 minutes at room temperature. In a few lines: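 GST-cleaved human recombinant CSNK1D phosphorylates peptide PLSRTL-pS-VASLPGL with ATP; compounds added in dose-response, 45 min at room temperature. ADP formed measured by ADP-Glo luminescence and converted to percent activity.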
A general note: In ADP-Glo the light output rises with the ADP produced.

The structures appear in SMILES notation.

For orientation: IC50 means the concentration at which inhibition is half-maximal.

T2 sequence (P48730 whole entry): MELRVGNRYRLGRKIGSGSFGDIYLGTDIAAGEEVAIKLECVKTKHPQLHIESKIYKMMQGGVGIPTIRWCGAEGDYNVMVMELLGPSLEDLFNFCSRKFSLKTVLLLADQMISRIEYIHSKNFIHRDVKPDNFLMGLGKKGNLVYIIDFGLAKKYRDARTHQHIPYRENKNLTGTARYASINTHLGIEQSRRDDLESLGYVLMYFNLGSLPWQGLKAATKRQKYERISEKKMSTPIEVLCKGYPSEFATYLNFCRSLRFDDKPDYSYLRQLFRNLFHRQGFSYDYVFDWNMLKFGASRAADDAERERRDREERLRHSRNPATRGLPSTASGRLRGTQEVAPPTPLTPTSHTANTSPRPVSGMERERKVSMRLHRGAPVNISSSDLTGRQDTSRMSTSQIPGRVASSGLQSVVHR
T1 sequence (P48730 whole entry): as above

Regarding `C[C@H]1COCc2c(-c3ccnc4[nH]ncc34)c(-c3ccc(F)cc3)nn21` (single isomer, unassigned) [Example 91, (*S)-2-(4-Fluorophenyl)-7-methyl-3-(1H-pyrazolo[3,4-b]pyridin-4-yl)-6,7-dihydro-4H-pyrazolo[5,1-c][1,4]oxazine], the values for the IC50 in test [1] and in test [2] were 151 nM and 8 nM, respectively.

For `Cc1cc(-c2c(-c3ccc(Cl)cc3)nn3c2COCC3)c2cn[nH]c2n1` [Example 68, 2-(4-Chlorophenyl)-3-(6-methyl-1H-pyrazolo[3,4-b]pyridin-4-yl)-6,7-dihydro-4H-pyrazolo[5,1-c][1,4]oxazine], the IC50 is 206 nM in test [1] and 27 nM in test [2].

For the molecule `CC1(CF)CCc2c(-c3ccnc(N)c3)c(-c3ccc(F)cn3)nn2C1` (single isomer, unassigned) [Example 286, (*S)-4-[6-(Fluoromethyl)-2-(5-fluoro-2-pyridyl)-6-methyl-5,7-dihydro-4H-pyrazolo[1,5-a]pyridin-3-yl]pyridin-2-amine], the IC50 is 81 nM in test [1] and 4 nM in test [2].

On to `Fc1ccc(-c2nn3c(c2-c2ccnc4[nH]ncc24)OCC(F)(F)C3)cc1` [Example 467, 6,6-Difluoro-2-(4-fluorophenyl)-3-(1H-pyrazolo[3,4-b]pyridin-4-yl)-5,7-dihydropyrazolo[5,1-b][1,3]oxazine], for which the IC50 came out at 21 nM in test [1] and 2 nM in test [2].

On to `COC[C@]1(F)CCc2c(-c3cc(C)nc4[nH]ncc34)c(-c3ccc(F)cn3)nn2C1` (single isomer, unassigned) [Example 304, (*S)-4-[6-Fluoro-2-(5-fluoro-2-pyridyl)-6-(methoxymethyl)-5,7-dihydro-4H-pyrazolo[1,5-a]pyridin-3-yl]-6-methyl-1H-pyrazolo[3,4-b]pyridine], for which the results for the concentration for half-maximal inhibition (IC50) in test [1] and in test [2] were 34 nM and 4 nM, respectively.

As for `CCC(=O)Nc1cc(-c2c(-c3ccc(F)cn3)nn3c2COC(C)(C)C3)ccn1` [Example 131, N-(4-(2-(5-Fluoropyridin-2-yl)-6,6-dimethyl-6,7-dihydro-4H-pyrazolo[5,1-c][1,4]oxazin-3-yl)pyridin-2-yl)propionamide], the 50% inhibitory concentration (IC50) in test [1] is 16 nM; in test [2], 3 nM.

Turning to `C[C@@H]1CCn2nc(-c3ccc(F)cn3)c(-c3ccnc4[nH]ncc34)c2O1` (single isomer, unassigned) [Example 199, (*R)-2-(5-Fluoro-2-pyridyl)-5-methyl-3-(1H-pyrazolo[3,4-b]pyridin-4-yl)-6,7-dihydro-5H-pyrazolo[5,1-b][1,3]oxazine], the IC50 in test [1] was determined as 186 nM; in test [2], 12 nM.

As for `COCC1CCc2c(-c3cc(C)nc4[nH]ncc34)c(-c3ccc(F)cn3)nn2C1` (single isomer, unassigned) [Example 297, (*R)-4-[2-(5-Fluoro-2-pyridyl)-6-(methoxymethyl)-4,5,6,7-tetrahydropyrazolo[1,5-a]pyridin-3-yl]-6-methyl-1H-pyrazolo[3,4-b]pyridine], the IC50 is 297 nM in test [1] and 12 nM in test [2].

As for `Cc1cc(-c2c(-c3ccc(F)cn3)nn3c2CO[C@](C)(C(F)(F)F)C3)c2cn[nH]c2n1` (single isomer, unassigned) [Example 179, (*S)-2-(5-Fluoropyridin-2-yl)-6-methyl-3-(6-methyl-1H-pyrazolo[3,4-b]pyridin-4-yl)-6-(trifluoromethyl)-6,7-dihydro-4H-pyrazolo[5,1-c][1,4]oxazine], the IC50 in test [1] is 15 nM; in test [2], 3 nM.

On to `Cc1nc(-c2nn3c(c2-c2ccnc4[nH]ncc24)COC(C)(C)C3)ccc1F` [Example 164, 2-(5-Fluoro-6-methylpyridin-2-yl)-6,6-dimethyl-3-(1H-pyrazolo[3,4-b]pyridin-4-yl)-6,7-dihydro-4H-pyrazolo[5,1-c][1,4]oxazine], for which the IC50 in test [1] turned out to be 165 nM; in test [2] it was 9 nM.

As to `Fc1ccc(-c2nn3c(c2-c2ccnc4[nH]ncc24)CO[C@H](C(F)(F)F)C3)cc1` [Example 100, (S)-2-(4-Fluorophenyl)-3-(1H-pyrazolo[3,4-b]pyridin-4-yl)-6-(trifluoromethyl)-6,7-dihydro-4H-pyrazolo[5,1-c][1,4]oxazine], the results for the IC50 in test [1] and in test [2] were 697 nM and 55 nM, respectively.

Consider `Cc1cc(-c2c(-c3ccc(F)cc3)nn3c2C[C@H]2C[C@H]23)c2cn[nH]c2n1` [Example 269], for which the half-inhibitory concentration (IC50) in test [1] was determined as 73 nM; in test [2], 6 nM.

As to `[2H]C([2H])([2H])C1(C([2H])([2H])[2H])Cn2nc(-c3ccc(F)cn3)c(-c3c(F)c(C)nc4[nH]nc(Cl)c34)c2CO1` [Example 408, 3-(3-Chloro-5-fluoro-6-methyl-1H-pyrazolo[3,4-b]pyridin-4-yl)-2-(5-fluoropyridin-2-yl)-6,6-bis(methyl-d3)-6,7-dihydro-4H-pyrazolo[5,1-c][1,4]oxazine], the IC50 in test [1] came to 26 nM; in test [2], 6 nM.

Consider `Cc1cc(-c2c(-c3ccc(F)cc3)nn3c2COCC3)c2cn[nH]c2n1` [Example 71, 2-(4-Fluorophenyl)-3-(6-methyl-1H-pyrazolo[3,4-b]pyridin-4-yl)-6,7-dihydro-4H-pyrazolo[5,1-c][1,4]oxazine], for which the IC50 in test [1] came to 21 nM; in test [2] it was 2 nM.

As for `Fc1ccc(-c2nn3c(c2-c2ccnc4[nH]ncc24)COC2(CC2)C3)nc1` [Example 432, 2-(5-Fluoro-2-pyridyl)-3-(1H-pyrazolo[3,4-b]pyridin-4-yl)spiro[4,7-dihydropyrazolo[5,1-c][1,4]oxazine-6,1′-cyclopropane]], the figures for the IC50 in test [1] and in test [2] were 195 nM and 8 nM, respectively.

As to `CC[C@H]1Cn2nc(-c3ccc(F)cn3)c(-c3ccnc4[nH]ncc34)c2CO1` (single isomer, unassigned) [Example 96, (*S)-6-Ethyl-2-(5-fluoropyridin-2-yl)-3-(1H-pyrazolo[3,4-b]pyridin-4-yl)-6,7-dihydro-4H-pyrazolo[5,1-c][1,4]oxazine], the IC50 in test [1] is 2730 nM; in test [2], 32 nM.

As for `COC[C@]1(F)CCc2c(-c3ccnc4[nH]ncc34)c(-c3ccc(F)cn3)nn2C1` (single isomer, unassigned) [Example 300, (*S)-4-[6-Fluoro-2-(5-fluoro-2-pyridyl)-6-(methoxymethyl)-5,7-dihydro-4H-pyrazolo[1,5-a]pyridin-3-yl]-1H-pyrazolo[3,4-b]pyridine], the results for the IC50 in test [1] and in test [2] were 1910 nM and 75 nM, respectively.

For `Cn1ncc2nccc(-c3c(-c4ccc(F)cn4)nn4c3COC(C)(C)C4)c21` [Example 159, 2-(5-Fluoropyridin-2-yl)-6,6-dimethyl-3-(1-methyl-1H-pyrazolo[4,3-b]pyridin-7-yl)-6,7-dihydro-4H-pyrazolo[5,1-c][1,4]oxazine], the IC50 in test [1] is over 10000 nM; in test [2], 1180 nM.

`Cc1cc(-c2c(-c3ccc(F)cc3)nn3c2OCC(C)(C)C3)c2cn[nH]c2n1` [Example 213, 2-(4-Fluorophenyl)-6,6-dimethyl-3-(6-methyl-1H-pyrazolo[3,4-b]pyridin-4-yl)-6,7-dihydro-5H-pyrazolo[5,1-b][1,3]oxazine]: the IC50 in test [1] was found to be 2 nM; in test [2], 1 nM.
